Experimental data: ChEMBL document CHEMBL4251631, “New antiglioma zwitterionic pronucleotides with an FdUMP framework” (Eur J Med Chem, 2018)

Columns and labels:
MRC5 = assay: Cytostatic activity against human MRC5 cells assessed as reduction in cell viability after 48 hrs by MTT assay; format: functional, cell-based; details: MRC5, 48 h
T98G = assay: Cytostatic activity against human T98G cells assessed as reduction in cell viability after 48 hrs by MTT assay; format: functional, cell-based
U-118-MG = assay: Cytostatic activity against human U118MG cells assessed as reduction in cell viability after 48 hrs by MTT assay; format: functional, cell-based
U-87 MG = assay: Cytostatic activity against human U87MG cells assessed as reduction in cell viability after 48 hrs by MTT assay; format: functional, cell-based, U-87MG ATCC
[1] = Half life in RPMI/FBS cell culture media 9:1 (v/v) at 2 mM by HPLC analysis; format: physicochemical; details: cattle
[2] = Half life in human serum at 2 mM by HPLC analysis; format: ADME, cell-free
HeLa = assay: Cytostatic activity against human HeLa cells assessed as reduction in cell viability after 48 hrs by MTT assay; format: functional, cell-based
T47D = assay: Cytostatic activity against human T47D cells assessed as reduction in cell viability after 48 hrs by MTT assay; format: functional, cell-based
[3] = Selectivity index, ratio of IC50 for human MRC5 cells to IC50 for human T98G cells; format: toxicity; details: MRC5 cells and T98G cells, read-out: Ratio IC50
[4] = Selectivity index, ratio of IC50 for human MRC5 cells to IC50 for human U118MG cells; format: toxicity; details: MRC5 cells and U118MG cells, read-out: Ratio IC50
[5] = Selectivity index, ratio of IC50 for human MRC5 cells to IC50 for human U87MG cells; format: toxicity; details: MRC5 cells and U87MG cells, read-out: Ratio IC50
Caco-2 = assay: Cytostatic activity against human Caco2 cells assessed as reduction in cell viability after 48 hrs by MTT assay; format: functional, cell-based; details: Caco-2, 48 h
[6] = Stability in RPMI cell culture media at 2 mM by HPLC analysis; format: physicochemical; details: 2000 µM
[7] = Half life in RPMI/FBS cell culture media 9:1 (v/v) assessed as cumulative concentration of metabolites of known anticancer activity at 2 mM by HPLC analysis; format: ADME; details: 2000 µM

Row | SMILES | IC50 (MRC5) [µM] | IC50 (T98G) [µM] | IC50 (U-118-MG) [µM] | IC50 (U-87 MG) [µM] | half-life at 2000 µM [1] [h] | half-life at 2000 µM [2] [h] | IC50 (HeLa) [µM] | IC50 (T47D) [µM] | selectivity ratio [3] | selectivity ratio [4] | selectivity ratio [5] | IC50 (Caco-2) [µM] | Stability [6] | t1/2 [7] [h]
1 | Oc1cccnc1 | > 500 | > 500 | > 500 | > 500 |  |  |  |  |  |  |  |  |  | 
2 | CCCCCCCCCC[n+]1cccc(O)c1 | 126 | 55.6 | 125 | 158 |  |  |  |  |  |  |  |  |  | 
3 | C[N+]1(C)CCC(OP(=O)([O-])OC[C@H]2O[C@@H](n3cc(F)c(=O)[nH]c3=O)C[C@@H]2OC(=O)c2ccccc2)CC1 | 8.3 | 6.7 | 4.42 | 1.28 | > 120 | > 120 | 27.2 | 11.9 | 1 | 2 | 7 | 15.7 | Stable | 
4 | CCOC(=O)C[n+]1cccc2cc(O)ccc21 | 162 | > 200 | > 200 | > 200 |  |  |  |  |  |  |  |  |  | 
5 | O=C(O[C@H]1C[C@H](n2cc(F)c(=O)[nH]c2=O)O[C@@H]1COP(=O)([O-])Oc1ccc[n+](Cc2ccccc2)c1)c1ccccc1 | 38.5 | 2.6 | 1.47 | 0.66 | 10.8 | 14.4 | 0.53 | 3.43 | 15 | 26 | 58 | 0.43 | Stable | 
6 | C[n+]1cccc(OP(=O)([O-])OC[C@H]2O[C@@H](n3cc(F)c(=O)[nH]c3=O)C[C@@H]2OC(=O)c2ccccc2)c1 | 5.75 | 3.48 | 3.15 | 0.59 | 14.8 | 37.3 | 1.26 | 3.91 | 2 | 2 | 10 | 1.38 | Stable | 
7 | O=c1[nH]c(=O)n([C@H]2C[C@H](O)[C@@H](COP(=O)(O)Oc3cccnc3)O2)cc1F | 8.5 | 1.2 | 27.5 | 39.8 | 16.7 | 19.9 | 0.7 | 9.35 | 7 | < 1 | < 1 | 3.39 | Stable | 
8 | CCCCCCCCCC[n+]1cccc(OP(=O)([O-])OC[C@H]2O[C@@H](n3cc(F)c(=O)[nH]c3=O)C[C@@H]2OC(=O)c2ccccc2)c1 | 14.1 | 0.4 | 0.32 | 0.67 | 16.5 | 8.3 | 1.2 | 8.73 | 35 | 44 | 21 | 12.9 | Stable | 
9 | C[N+]1(Cc2ccccc2)C2CCC1CC(OP(=O)([O-])OC[C@H]1O[C@@H](n3cc(F)c(=O)[nH]c3=O)C[C@@H]1OC(=O)c1ccccc1)C2 (stereo not given in full) | 62.5 | 49.9 | 66.3 | 35.9 | > 120 | > 120 | > 80 | > 80 | 1 | 1 | 2 | > 80 | Stable | 
10 | O=C(O[C@H]1C[C@H](n2cc(F)c(=O)[nH]c2=O)O[C@@H]1COP(=O)(O)Oc1ccc2ncccc2c1)c1ccccc1 | 1.3 | 1.3 | 0.79 | 0.88 | 7.7 | 16.5 | 7.3 | 7.14 | 1 | 2 | 1 | 2.46 | Stable | 
11 | O=C(O[C@H]1C[C@H](n2cc(F)c(=O)[nH]c2=O)O[C@@H]1COP(=O)(O)Oc1ccccc1)c1ccccc1 | 1.27 | 0.81 | 0.97 | 0.8 | 6.6 | 5.1 | 5.86 | 6.88 | 2 | 1 | 2 | 1.02 | Stable | 
12 | O=c1[nH]c(=O)n([C@H]2C[C@H](O)[C@@H](COP(=O)(O)Oc3ccccc3)O2)cc1F | 36.7 | 32.2 | 14.6 | 33.7 | 28 | 52.3 | 15.2 | 13.4 | 1 | 3 | 1 | 26.6 | Stable | 
13 | O=c1[nH]c(=O)n([C@H]2C[C@H](O)[C@@H](COP(=O)(O)Oc3ccc4ncccc4c3)O2)cc1F | 1.3 | 1.9 | 7.07 | 10.7 | 26 | 26.2 | 7.3 | 8.11 | < 1 | < 1 | < 1 | 1.4 | Stable | 
14 | CCCCCCCCCc1ccc(OP(=O)(O)OC[C@H]2O[C@@H](n3cc(F)c(=O)[nH]c3=O)C[C@@H]2OC(=O)c2ccccc2)cc1 | 39.9 | 6.74 | 11 | 6.73 | > 120 | > 120 | 40.1 | 26.7 | 6 | 4 | 6 | 20.4 | Stable | 
15 | Oc1ccc[n+](Cc2ccccc2)c1 | > 200 | > 200 | > 200 | > 200 |  |  |  |  |  |  |  |  |  | 
16 | O=C(O[C@H]1C[C@H](n2cc(F)c(=O)[nH]c2=O)O[C@@H]1COP(=O)(O)Oc1cccnc1)c1ccccc1 | 15.6 | 1.3 | 0.92 | 0.71 | 6.7 | 17.8 | 6.9 | 14.4 | 12 | 17 | 22 | 2.5 | Stable | 
17 | C[N+](C)(CCOP(=O)([O-])OC[C@H]1O[C@@H](n2cc(F)c(=O)[nH]c2=O)C[C@@H]1OC(=O)c1ccccc1)Cc1ccccc1 | 0.6 | 2 | 3.69 | 0.61 | 54 | 96.3 | 1.5 | 33 | < 1 | < 1 | 1 | 11.7 | Stable | 
18 | CCOC(=O)C[n+]1cccc(O)c1 | > 200 | > 200 | > 200 | > 200 |  |  |  |  |  |  |  |  |  | 
19 | CCOC(=O)C[n+]1cccc2cc(OP(=O)([O-])OC[C@H]3O[C@@H](n4cc(F)c(=O)[nH]c4=O)C[C@@H]3OC(=O)c3ccccc3)ccc21 | 34.9 | 13 | 0.76 | 0.53 | 2 | 5.9 | 0.6 | 21.6 | 3 | 46 | 66 | 28.9 | Stable | 15.6
20 | C[N+](C)(C)CCOP(=O)([O-])OC[C@H]1O[C@@H](n2cc(F)c(=O)[nH]c2=O)C[C@@H]1OC(=O)c1ccccc1 | 1.3 | 24.7 | 7.54 | 1.79 | 20 | 116 | 3.6 | 39.6 | < 1 | < 1 | < 1 | 8.12 | Stable | 
21 | CCOC(=O)C[n+]1cccc(OP(=O)([O-])OC[C@H]2O[C@@H](n3cc(F)c(=O)[nH]c3=O)C[C@@H]2OC(=O)c2ccccc2)c1 | 8.6 | 1.6 | 1.54 | 0.58 | 1.1 | 1.4 | 6.1 | 12.7 | 5 | 6 | 15 | 2.62 | Stable | 8.6
